Measurements published in article PMC3742231 (International Journal of Molecular Sciences, 2013).
Like-named read-outs stand apart in the source and are kept apart here.

Experiments:
[1] = molecular target: T1, CYP2B6 (Homo sapiens, UniProt P20813); experiment: biochemical; conditions: read-out: IC50, Bupropion hydroxylation; human liver microsomes, probe 1 μM
T1 sequence (P20813 1-491): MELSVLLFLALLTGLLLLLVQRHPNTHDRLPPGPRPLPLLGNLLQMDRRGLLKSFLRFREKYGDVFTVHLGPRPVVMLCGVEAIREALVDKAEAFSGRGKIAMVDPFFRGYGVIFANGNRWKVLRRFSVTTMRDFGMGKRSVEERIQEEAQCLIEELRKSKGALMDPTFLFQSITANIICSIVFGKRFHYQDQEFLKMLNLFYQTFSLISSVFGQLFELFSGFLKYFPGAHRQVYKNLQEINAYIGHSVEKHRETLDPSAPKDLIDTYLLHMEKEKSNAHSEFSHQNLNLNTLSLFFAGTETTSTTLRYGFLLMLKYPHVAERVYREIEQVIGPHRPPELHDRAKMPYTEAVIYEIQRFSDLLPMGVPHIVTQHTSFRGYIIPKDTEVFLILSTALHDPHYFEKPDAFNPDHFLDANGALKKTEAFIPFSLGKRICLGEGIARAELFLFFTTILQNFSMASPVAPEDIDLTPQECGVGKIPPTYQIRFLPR
Description: (§1) Human liver microsomes were prepared and pooled from ten human livers (HL20–24,28–32) as previously described. Human liver samples were obtained from the University Hospital of Oulu as surplus tissue from cadaver kidney transplant donors. The collection of surplus tissue was approved by the Ethics Committee of the Medical Faculty of the University of Oulu, Finland. All donors were Caucasians ranging in age from 21 to 62 years; four were female and six were male. Detailed information on each donor has been published previously. Protein concentrations were measured using the Bradford method.
(§2) In vitro inhibition of CYP isoforms was first assessed using the N-in-one approach (also called the cocktail approach). CYP-selective substrates and reactions are listed in Table 1; concentrations were roughly at or below the respective Michaelis-Menten coefficients. […] A Micromass LCT time-of-flight high-resolution mass spectrometer (Micromass Ltd., Manchester, UK) equipped with a Z-spray electrospray ionization source was used for the monitoring of CYP-selective reactions. Integrated mass chromatogram peak areas were normalized versus internal standards before comparing metabolites in different preparations. More details of the assay are available in previous publications.
(§3) Dixon, Lineweaver-Burk, Hanes, and Hofstee plots were used for the analysis of the type of inhibition.

[2] = molecular target: CYP2C19 (Homo sapiens, UniProt P33261); experiment: biochemical; conditions: human liver microsomes, probe 2 μM
Chain of CYP2C19 (P33261 whole entry): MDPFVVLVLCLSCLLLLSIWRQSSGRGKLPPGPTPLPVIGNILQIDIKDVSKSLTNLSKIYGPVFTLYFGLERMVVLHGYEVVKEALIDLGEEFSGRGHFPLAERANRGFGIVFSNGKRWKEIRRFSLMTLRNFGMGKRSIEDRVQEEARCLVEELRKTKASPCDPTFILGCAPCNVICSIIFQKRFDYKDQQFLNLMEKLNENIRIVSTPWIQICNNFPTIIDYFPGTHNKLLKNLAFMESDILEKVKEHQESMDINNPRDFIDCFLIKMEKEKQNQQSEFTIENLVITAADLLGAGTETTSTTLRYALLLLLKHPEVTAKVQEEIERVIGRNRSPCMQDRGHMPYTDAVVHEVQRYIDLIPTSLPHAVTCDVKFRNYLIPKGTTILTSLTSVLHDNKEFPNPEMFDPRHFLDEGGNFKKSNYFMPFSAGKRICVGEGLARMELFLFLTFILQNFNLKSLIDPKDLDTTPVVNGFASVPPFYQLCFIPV
Description: as §1, §2, §3

[3] = molecular target: CYP2C9 (Homo sapiens, UniProt P11712); conditions: read-out: IC50, Tolbutamide methylhydroxylation; human liver microsomes, probe 4 μM
Chain of CYP2C9 (P11712 whole entry): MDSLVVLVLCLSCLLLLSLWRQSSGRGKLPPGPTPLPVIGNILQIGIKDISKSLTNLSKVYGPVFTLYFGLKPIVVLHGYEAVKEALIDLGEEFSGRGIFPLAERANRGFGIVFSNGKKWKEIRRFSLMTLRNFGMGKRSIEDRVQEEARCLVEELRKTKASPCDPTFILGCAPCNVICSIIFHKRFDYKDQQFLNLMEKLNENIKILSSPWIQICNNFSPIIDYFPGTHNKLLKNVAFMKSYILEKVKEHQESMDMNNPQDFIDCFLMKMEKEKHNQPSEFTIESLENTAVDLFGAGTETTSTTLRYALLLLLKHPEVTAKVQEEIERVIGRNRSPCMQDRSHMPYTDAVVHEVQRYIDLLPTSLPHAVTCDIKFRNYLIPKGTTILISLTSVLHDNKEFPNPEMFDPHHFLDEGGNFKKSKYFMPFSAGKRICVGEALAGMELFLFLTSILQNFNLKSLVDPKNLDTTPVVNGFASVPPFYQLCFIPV
Description: as §1, §2, §3

[4] = molecular target: T2, CYP2C8 (Homo sapiens, UniProt P10632); experiment: N-in-one CYP inhibition assay in human liver microsomes; type of inhibition; conditions: read-out: IC50, Amodiaquine desethylation; human liver microsomes, probe 2 μM
T2 sequence (P10632 1-490): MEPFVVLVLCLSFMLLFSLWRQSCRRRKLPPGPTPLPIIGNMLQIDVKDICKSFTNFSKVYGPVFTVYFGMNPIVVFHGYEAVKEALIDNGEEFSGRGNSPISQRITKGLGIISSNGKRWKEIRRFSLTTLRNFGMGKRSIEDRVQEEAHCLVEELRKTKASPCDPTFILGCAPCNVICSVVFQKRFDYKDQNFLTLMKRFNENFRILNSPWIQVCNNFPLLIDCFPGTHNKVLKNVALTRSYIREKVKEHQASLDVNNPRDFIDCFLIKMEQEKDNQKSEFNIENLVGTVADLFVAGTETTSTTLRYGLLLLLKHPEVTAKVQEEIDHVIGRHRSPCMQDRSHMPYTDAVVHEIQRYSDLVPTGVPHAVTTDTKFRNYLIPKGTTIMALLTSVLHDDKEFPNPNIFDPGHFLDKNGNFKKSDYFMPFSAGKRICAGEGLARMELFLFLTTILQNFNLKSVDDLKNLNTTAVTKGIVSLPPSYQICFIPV
Description: as §1, §2, §3

[5] = molecular target: CYP2D6 (Homo sapiens, UniProt P10635); experiment: as above; conditions: read-out: IC50, Dextromethorphan O-demethylation; human liver microsomes, probe 0.2 μM
Chain of CYP2D6 (P10635 whole entry): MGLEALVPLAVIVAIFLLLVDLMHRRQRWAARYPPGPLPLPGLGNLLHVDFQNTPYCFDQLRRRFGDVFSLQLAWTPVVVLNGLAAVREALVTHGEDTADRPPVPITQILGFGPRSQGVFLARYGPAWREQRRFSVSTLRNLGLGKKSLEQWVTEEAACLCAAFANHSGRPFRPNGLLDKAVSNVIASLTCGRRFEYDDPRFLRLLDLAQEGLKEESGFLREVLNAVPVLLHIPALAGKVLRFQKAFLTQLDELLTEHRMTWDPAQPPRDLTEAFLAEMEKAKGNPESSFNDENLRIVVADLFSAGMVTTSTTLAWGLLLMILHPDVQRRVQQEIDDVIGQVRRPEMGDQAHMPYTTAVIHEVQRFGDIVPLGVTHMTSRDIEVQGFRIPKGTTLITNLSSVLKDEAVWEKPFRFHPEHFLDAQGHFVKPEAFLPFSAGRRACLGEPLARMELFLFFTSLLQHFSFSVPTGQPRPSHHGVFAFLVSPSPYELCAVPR
Description: as §1, §2, §3

[6] = molecular target: T3, CYP2A6 (Homo sapiens, UniProt P11509); experiment: N-in-one CYP inhibition assay in human liver microsomes; conditions: read-out: IC50, Coumarin 7-hydroxylation; human liver microsomes, probe 2 μM
T3 sequence (P11509 1-494): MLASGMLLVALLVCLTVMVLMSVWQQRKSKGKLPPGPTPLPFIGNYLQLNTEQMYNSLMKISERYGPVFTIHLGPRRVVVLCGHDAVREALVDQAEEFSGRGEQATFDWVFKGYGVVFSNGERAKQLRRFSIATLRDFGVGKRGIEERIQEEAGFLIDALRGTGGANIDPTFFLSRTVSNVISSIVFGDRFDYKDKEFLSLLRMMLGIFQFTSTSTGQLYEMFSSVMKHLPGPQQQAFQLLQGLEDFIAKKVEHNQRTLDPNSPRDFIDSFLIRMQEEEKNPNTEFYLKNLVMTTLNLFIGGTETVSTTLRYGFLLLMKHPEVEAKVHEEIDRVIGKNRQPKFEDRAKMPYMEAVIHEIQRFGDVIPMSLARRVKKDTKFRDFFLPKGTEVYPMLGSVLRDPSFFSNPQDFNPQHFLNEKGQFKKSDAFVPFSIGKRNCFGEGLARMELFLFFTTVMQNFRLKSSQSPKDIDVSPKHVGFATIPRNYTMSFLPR
Description: as §1, §2

[7] = molecular target: CYP2E1 (Homo sapiens, UniProt P05181); experiment: as above; conditions: read-out: IC50, Chlorzoxazone 6-hydroxylation; human liver microsomes, probe 6 μM
Chain of CYP2E1 (P05181 whole entry): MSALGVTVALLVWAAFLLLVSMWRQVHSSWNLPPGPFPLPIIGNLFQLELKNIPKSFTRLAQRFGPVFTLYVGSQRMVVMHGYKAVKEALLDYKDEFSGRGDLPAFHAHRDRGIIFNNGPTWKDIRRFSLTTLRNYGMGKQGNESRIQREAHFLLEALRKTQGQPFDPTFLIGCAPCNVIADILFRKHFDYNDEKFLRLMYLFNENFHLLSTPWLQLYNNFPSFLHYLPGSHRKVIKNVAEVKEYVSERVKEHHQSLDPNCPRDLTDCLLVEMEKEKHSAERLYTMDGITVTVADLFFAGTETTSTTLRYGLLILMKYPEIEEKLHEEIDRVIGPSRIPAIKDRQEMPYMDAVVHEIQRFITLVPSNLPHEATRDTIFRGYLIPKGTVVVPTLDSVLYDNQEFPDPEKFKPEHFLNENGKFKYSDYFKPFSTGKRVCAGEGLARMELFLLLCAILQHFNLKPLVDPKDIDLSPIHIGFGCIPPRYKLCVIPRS
Description: as §1, §2

[8] = molecular target: T4, CYP1A2 (Homo sapiens, UniProt P05177); experiment: biochemical; conditions: read-out: IC50, Melatonin 6-hydroxylation; human liver microsomes, probe 4 μM
T4 sequence (P05177 1-516): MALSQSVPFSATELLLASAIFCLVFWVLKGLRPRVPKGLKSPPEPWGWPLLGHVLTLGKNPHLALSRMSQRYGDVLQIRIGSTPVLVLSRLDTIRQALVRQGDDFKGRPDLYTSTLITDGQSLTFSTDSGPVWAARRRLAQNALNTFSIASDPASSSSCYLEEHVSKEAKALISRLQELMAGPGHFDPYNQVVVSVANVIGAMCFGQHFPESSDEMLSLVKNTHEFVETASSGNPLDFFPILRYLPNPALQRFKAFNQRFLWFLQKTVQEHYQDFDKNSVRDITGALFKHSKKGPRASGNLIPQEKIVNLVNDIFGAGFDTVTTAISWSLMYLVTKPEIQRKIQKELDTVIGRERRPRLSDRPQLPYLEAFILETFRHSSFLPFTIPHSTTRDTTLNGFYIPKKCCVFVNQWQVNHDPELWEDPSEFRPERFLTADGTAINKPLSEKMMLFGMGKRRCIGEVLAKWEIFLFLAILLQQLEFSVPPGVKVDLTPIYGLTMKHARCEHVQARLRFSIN
Description: as §1, §2

[9] = molecular target: CYP3A4 (Homo sapiens, UniProt P08684); experiment: biochemical; conditions: human liver microsomes
Chain of CYP3A4 (P08684 whole entry): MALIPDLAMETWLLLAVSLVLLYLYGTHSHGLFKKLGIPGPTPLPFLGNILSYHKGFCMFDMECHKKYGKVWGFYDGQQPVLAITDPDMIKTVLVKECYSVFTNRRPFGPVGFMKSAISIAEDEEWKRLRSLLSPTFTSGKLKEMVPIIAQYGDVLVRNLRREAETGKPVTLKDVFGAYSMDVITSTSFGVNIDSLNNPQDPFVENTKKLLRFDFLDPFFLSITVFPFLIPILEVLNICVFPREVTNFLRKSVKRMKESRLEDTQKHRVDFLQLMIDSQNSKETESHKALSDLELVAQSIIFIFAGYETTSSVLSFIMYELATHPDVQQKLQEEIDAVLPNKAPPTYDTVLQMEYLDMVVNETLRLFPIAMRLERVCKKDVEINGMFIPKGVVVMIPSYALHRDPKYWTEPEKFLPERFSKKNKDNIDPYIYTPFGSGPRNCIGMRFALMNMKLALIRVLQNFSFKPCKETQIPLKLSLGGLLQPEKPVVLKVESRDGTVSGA
Description: as §1, §2

[10] = test system: CYP-mediated enzyme activities; experiment: N-in-one CYP inhibition assay, summary for all other CYP-mediated activities; type: in vitro ADME; conditions: human liver microsomes; CYPs other than those named in the paragraph
[11] = repeated oral 60-mg dosing of ospemifene, no reference given; read-out: clinical Cmax; cited from earlier work
[12] = metabolites of ospemifene; cited from earlier work
[13] = Overall safety in the three clinical studies; type: in vivo, human; conditions: healthy postmenopausal women, with and without ospemifene
Source text: All experiments with human subjects were based on voluntary informed consent and the clinical study protocols had appropriate ethical and regulatory approval. Subjects were asked to immediately report any significant adverse events (AEs) that occurred during the study; minor AEs were reported at clinic visits. AEs were coded and classified according to the Medical Dictionary for Regulatory Activities.

[14] = female, human, in vivo, 150 mg
Source text: (§4) Studies 1 and 2 were open-label, two-period, single-center, Phase 1, balanced, crossover studies in healthy postmenopausal women. […] Study 3 was a Phase 1, open-label, single-center, balanced, two-period, crossover study in healthy postmenopausal women who were not homozygous for the CYP2C19*2 genotype (CYP2C19*2 indicates the CYP2C19 variant that is associated with reduced activity). In each study, equal numbers of subjects were assigned to the two different treatment sequences.
(§5) The study periods were separated by ≥14 days.
(§6) With the exception of tmax, which was analyzed using the nonparametric Wilcoxon’s test, pharmacokinetic parameters were analyzed after log-transformation using analysis of variance (ANOVA), with sequence, period, and treatment as fixed effects.

[15] = clinical; conditions: female, human, in vivo
Source text: as §4, §5, §6

[16] = Study 2: effect of ospemifene on bupropion pharmacokinetics; conditions: for CL/F, mean (CV%) / t1/2, mean (CV%) / AUCt, mean (CV%) / Cmax, mean (CV%) / tmax, median (range) / AUC∞, mean (CV%): 150 mg bupropion; for AUCt, mean (CV%): 0-96 h; for AUC∞, mean (CV%): N = 16
Source text: as §4, §5, §6

[17] = Study 3: effect of ospemifene on omeprazole pharmacokinetics (metabolic ratios)
Source text: as §4
The study periods were separated by ≥14 days. In both study periods, blood samples for determination of plasma omeprazole, 5-hydroxyomeprazole, and omeprazole sulfone concentrations were collected before and at 1, 2, 3, 4, 6, and 8 h after omeprazole administration.
In Study 3, concentrations of omeprazole, 5-hydroxyomeprazole, and omeprazole sulfone were determined using a validated LC-MS/MS method. Pharmacokinetic parameters were analyzed after log-transformation using ANOVA, with sequence, period, and treatment as fixed effects. Primary pharmacokinetic parameters included the metabolic ratios of omeprazole/5-hydroxyomeprazole and omeprazole/omeprazole sulfone, based on plasma concentrations at 3 h, which reflected CYP2C19 and CYP3A4 activities, respectively.

[18] = 10 mg racemic warfarin; for AUC∞, mean (CV%): N = 16
Source text: as §4
The study periods were separated by ≥3 weeks.
as §6

[19] = cited from earlier work

SMILES: OCCOc1ccc(/C(=C(/CCCl)c2ccccc2)c2ccc(O)cc2)cc1 [4-Hydroxy-ospemifene, 4-hydroxyospemifene]
- IC50 [1]: 26.5 µM
- IC50 ([2]; read-out: IC50, Omeprazole 5-hydroxylation): 15.3 µM
- IC50 ([2]; read-out: IC50, Omeprazole demethylation): 19.7 µM
- IC50 [3]: 1.1 µM
- IC50 [4]: 27.7 µM
- IC50 [5]: 25.5 µM
- IC50 [6]: > 100 µM
- IC50 [7]: > 100 µM
- IC50 [8]: > 100 µM
- IC50 ([9]; read-out: IC50, Midazolam 1′-hydroxylation, probe 0.4 μM): > 100 µM
- IC50 ([9]; read-out: IC50, Omeprazole 3-hydroxylation, probe 2 μM): 50 µM
- IC50 ([9]; read-out: IC50, Omeprazole sulfoxidation, probe 2 μM): 35.9 µM
- IC50 ([9]; read-out: IC50, Testosterone 6β-hydroxylation, probe 1 μM): > 100 µM
- IC50 [10]: > 25 µM
- Cmax [11]: ~300 nM
- share of the total metabolites [12]: roughly 70%

SMILES: CC(NC(C)(C)C)C(=O)c1cccc(Cl)c1 (centres unmarked) [Bupropion, bupropion]
- Tolerability [13]: well tolerated
- AUCt, mean (CV%) [14]: 0.85 (33.7) μg h/mL
- AUC∞, mean (CV%) [14]: 0.90 (32.3) μg h/mL
- Tmax [15]: 3 h
- Cmax ([15]; 150 mg): 74.9 ng/mL
- Tmax ([15]; 150 mg): 3.5 h
- half-life ([15]; 150 mg): 30.8 h
- CL/F, mean (CV%) ([16]; OSP (+)): 230 (38.1) mL/h
- t1/2, mean (CV%) ([16]; OSP (+)): 29.5 (26.7) h
- CL/F, mean (CV%) ([16]; OSP (−)): 185 (38.1) mL/h

SMILES: C[C@H]1NC(C)(C)CO[C@]1(O)c1cccc(Cl)c1 [Hydroxybupropion, hydroxybupropion]
- AUCt, mean (CV%) ([16]; OSP (+)): 14.5 (31.7) μg h/mL
- AUCt, mean (CV%) ([16]; OSP (−)): 14.3 (28.1) μg h/mL
- Cmax, mean (CV%) ([16]; OSP (+)): 462 (29.0) ng/mL
- t1/2, mean (CV%) ([16]; OSP (+)): 21.2 (18.0) h
- tmax, median (range) ([16]; OSP (+)): 6.1 (5–8) h
- AUC∞, mean (CV%) ([16]; OSP (+) 60 mg once daily): 15.2 (32.4) μg h/mL
- Cmax, mean (CV%) ([16]; OSP (−)): 398 (30.6) ng/mL
- t1/2, mean (CV%) ([16]; OSP (−)): 26.7 (18.8) h
- tmax, median (range) ([16]; OSP (−)): 6.0 (5–24) h
- AUC∞, mean (CV%) ([16]; OSP (−)): 15.5 (29.4) μg h/mL
- Ratio of geometric least square means of AUC∞ (90% CI) ([16]; with and without ospemifene pretreatment): 0.977 (0.921–1.036)

SMILES: COc1ccc2[nH]c([S+]([O-])Cc3ncc(C)c(OC)c3C)nc2c1 (centres unmarked) [Omeprazole, omeprazole]
- Tolerability [13]: well tolerated
- Ratio ospemifene (+)/ospemifene (−) of metabolic ratio Omeprazole/5-hydroxyomeprazole (90% CI) ([17]; 3 h conc.): 0.97 (0.77–1.22)
- Ratio ospemifene (+)/ospemifene (−) of metabolic ratio Omeprazole/Omeprazole sulfone (90% CI) ([17]; 3 h conc.): 0.97 (0.67–1.41)
- Ratio ospemifene (+)/ospemifene (−) of metabolic ratio Omeprazole/5-hydroxyomeprazole (90% CI) ([17]; AUCt 0 to 8 h): 0.97 (0.88–1.08)
- Ratio ospemifene (+)/ospemifene (−) of metabolic ratio Omeprazole/Omeprazole sulfone (90% CI) ([17]; AUCt 0 to 8 h): 1.00 (0.88–1.15)

SMILES: CC(=O)C[C@H](c1ccccc1)c1c(O)c2ccccc2oc1=O [R-Warfarin]
- Cmax, mean (CV%) ([18]; OSP (+)): 538 (15.4) ng/mL
- tmax, median (range) ([18]; OSP (+)): 4 (2–8) h
- AUC∞, mean (CV%) ([18]; OSP (+) 60 mg once daily): 32.8 (23.1) μg h/mL
- Cmax, mean (CV%) ([18]; OSP (−)): 518 (15.2) ng/mL
- tmax, median (range) ([18]; OSP (−)): 4 (2–6) h
- AUC∞, mean (CV%) ([18]; OSP (−)): 31.3 (21.7) μg h/mL

SMILES: O=C(c1ccc(OCCN2CCCCC2)cc1)c1c(-c2ccc(O)cc2)sc2cc(O)ccc12 [Raloxifene]
- Decrease of the prothrombin time of patients on warfarin [19]: 10%

SMILES: CC(=O)C[C@@H](c1ccccc1)c1c(O)c2ccccc2oc1=O [S-Warfarin, S-warfarin]
- Cmax, mean (CV%) ([18]; OSP (+)): 513 (13.3) ng/mL
- tmax, median (range) ([18]; OSP (+)): 4 (2–8) h
- AUC∞, mean (CV%) ([18]; OSP (+) 60 mg once daily): 19.2 (30.2) μg h/mL
- Cmax, mean (CV%) ([18]; OSP (−)): 497 (14.5) ng/mL
- tmax, median (range) ([18]; OSP (−)): 4 (2–6) h
- AUC∞, mean (CV%) ([18]; OSP (−)): 18.5 (29.9) μg h/mL

SMILES: CC(=O)CC(c1ccccc1)c1c(O)c2ccccc2oc1=O (centres unmarked) [warfarin]
- Tolerability [13]: well tolerated
